According to paper PMC11695631 (Nature Communications, 2025):

Biological target: Vesicular monoamine transporter 2 (VMAT2) (Homo sapiens, UniProt Q05940)
Assay: cryo-EM structure at […] Å
Type: cell-based

Vesicular monoamine transporter 2 (VMAT2), sequence (Q05940 12-514): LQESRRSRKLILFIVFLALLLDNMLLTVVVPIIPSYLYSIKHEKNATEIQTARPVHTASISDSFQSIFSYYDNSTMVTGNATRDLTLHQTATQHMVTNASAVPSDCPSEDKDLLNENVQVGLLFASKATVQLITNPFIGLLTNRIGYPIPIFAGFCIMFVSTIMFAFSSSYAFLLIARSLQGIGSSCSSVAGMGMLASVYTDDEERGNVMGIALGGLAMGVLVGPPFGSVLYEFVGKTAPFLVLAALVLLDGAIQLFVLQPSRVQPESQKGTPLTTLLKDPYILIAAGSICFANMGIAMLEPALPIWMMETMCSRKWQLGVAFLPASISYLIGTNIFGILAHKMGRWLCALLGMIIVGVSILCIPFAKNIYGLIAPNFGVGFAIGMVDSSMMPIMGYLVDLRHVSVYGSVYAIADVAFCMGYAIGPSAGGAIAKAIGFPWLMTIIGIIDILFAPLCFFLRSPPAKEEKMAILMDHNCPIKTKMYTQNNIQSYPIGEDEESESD

## COc1cc2c(cc1OC)C1CC(=O)C(CC(C)C)CN1CC2 (stereo not shown) [TBZ, tetrabenazine]
  IC50: 20.4 ± 4.1 nM
